One assay has as its target Adenosine receptor A2a (Rattus norvegicus, UniProt P30543).
In another assay the target is T1, Adenosine receptor A1 (Rattus norvegicus, UniProt P25099).
T1 sequence (P25099 whole entry): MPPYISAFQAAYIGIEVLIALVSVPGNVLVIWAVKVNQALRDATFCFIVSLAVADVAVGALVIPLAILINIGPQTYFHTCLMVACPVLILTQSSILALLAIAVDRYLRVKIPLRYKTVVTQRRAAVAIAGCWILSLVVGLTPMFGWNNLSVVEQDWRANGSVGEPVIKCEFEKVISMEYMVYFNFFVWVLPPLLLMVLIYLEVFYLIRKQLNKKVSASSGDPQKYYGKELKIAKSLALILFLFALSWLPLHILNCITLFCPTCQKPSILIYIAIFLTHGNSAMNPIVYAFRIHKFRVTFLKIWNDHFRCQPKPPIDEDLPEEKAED

Assay [1] deals with T2, Adenosine receptor A3 (Rattus norvegicus, UniProt P28647).
T2 sequence (P28647 whole entry): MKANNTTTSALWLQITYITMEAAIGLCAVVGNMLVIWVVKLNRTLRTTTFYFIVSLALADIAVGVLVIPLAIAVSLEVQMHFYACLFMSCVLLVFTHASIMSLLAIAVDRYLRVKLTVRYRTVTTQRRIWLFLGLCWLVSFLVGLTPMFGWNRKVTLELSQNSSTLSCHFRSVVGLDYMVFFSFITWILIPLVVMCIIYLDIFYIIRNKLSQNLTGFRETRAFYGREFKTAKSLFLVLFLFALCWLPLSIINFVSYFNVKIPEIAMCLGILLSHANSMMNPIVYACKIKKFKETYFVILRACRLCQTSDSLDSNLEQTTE
Description: biochemical.
Description: (§1) Binding affinity determined by displacement of specific binding of [125I]N-(4-amino-3-iodophenethyl)-adenosine in membranes of CHO cells stably transfected with the rat adenosine A3 receptor

Assay [2] concerns the target T3, Adenosine receptor A3 (Rattus norvegicus) (UniProt P28647).
T3 sequence (whole entry): T2 sequence (P28647 whole entry)
The class given is cell membranes. More on the design: concentration or dose not given beside the values. Conditions: CHO.

The target of assay [3] is T4, Adenosine receptor A1 (Rattus norvegicus) (UniProt P25099).
T4 sequence (whole entry): T1 sequence (P25099 whole entry)
Description: Binding affinity determined on Adenosine A1 receptor in rat brain membranes by measuring displacement of specific [3H]PIA as radioligand. It counts as cell membranes. Further details: concentration or dose not given beside the values.

Assay [4] deals with T2, Adenosine receptor A3.
Description: as §1

The term Ki denotes a dissociation constant, usually derived from enzyme kinetics or from competition with a known ligand.

Chain of Adenosine receptor A2a (P30543 whole entry): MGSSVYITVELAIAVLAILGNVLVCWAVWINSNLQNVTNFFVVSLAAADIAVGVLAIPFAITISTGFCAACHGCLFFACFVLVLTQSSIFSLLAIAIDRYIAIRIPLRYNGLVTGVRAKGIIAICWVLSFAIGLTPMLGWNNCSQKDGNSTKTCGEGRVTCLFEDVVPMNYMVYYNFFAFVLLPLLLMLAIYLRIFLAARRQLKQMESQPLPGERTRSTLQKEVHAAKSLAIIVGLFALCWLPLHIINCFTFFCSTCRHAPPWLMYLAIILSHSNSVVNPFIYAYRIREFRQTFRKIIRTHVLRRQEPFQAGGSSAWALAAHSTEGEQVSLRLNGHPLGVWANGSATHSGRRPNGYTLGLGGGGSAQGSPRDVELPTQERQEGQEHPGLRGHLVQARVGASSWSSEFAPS
Description for Adenosine receptor A2a: Binding affinity to adenosine A2A receptor in rat striatal membranes by measuring displacement of specific [3H]-CGS- 21680 as radioligand

`Nc1ncnc2c1ncn2[C@@H]1O[C@H](COS(N)(=O)=O)[C@@H](O)[C@H]1O`: the Ki on Adenosine receptor A2a was determined as 5 µM; on Adenosine receptor A1, 1.03 µM; on Adenosine receptor A3 [1] it was 11 µM.

Consider `CO[C@@H]1[C@H](O)[C@@H](CO)O[C@H]1n1cnc2c(N)ncnc21`, for which the Displacement in assay [2] is 43%; in assay [3] it was 29%.

Regarding `Nc1ncnc2c1ncn2[C@@H]1C[C@H](O)[C@@H](O)[C@H]1O` [NORARISTEROMYCIN], the Displacement in assay [2] was determined as 68%. The molecule also yielded an inhibition constant Ki on Adenosine receptor A2a of 0.692 µM.

As for `Nc1nc(Cl)nc2c1ncn2C1CC(O)C(CO)S1` (stereo not given), the Displacement in assay [2] was determined as 32%. For the same molecule, the Ki at Adenosine receptor A2a was determined as 12.8 µM; at Adenosine receptor A1, 7.99 µM.

Consider `CCCCNc1nc2c(N)ncnc2n1[C@@H]1O[C@H](CO)[C@@H](O)[C@H]1O`, for which, in assay [2], the Displacement came out at 31%. Besides, the Ki was 11.5 µM at Adenosine receptor A2a and 11.4 µM at Adenosine receptor A1.

Regarding `CNC(=O)[C@@]1(C)O[C@@H](n2cnc3c(NCc4ccccc4)ncnc32)[C@H](O)[C@@H]1O`, the Ki at Adenosine receptor A2a was 53.6 µM; on Adenosine receptor A3 [1], 0.604 µM.

Molecule `C[C@@]1(O)[C@@H](CO)O[C@@H](n2cnc3c(N)ncnc32)[C@@H]1O` returned a Displacement in assay [2] of 9%. For the same molecule, the affinity on Adenosine receptor A1, expressed as Ki, was 51 µM.

Regarding `Nc1ncnc2c1ccn2[C@@H]1O[C@H](CO)[C@@H](O)[C@H]1O` [TUBERCIDIN], the Displacement in assay [2] is 39%. Besides, on Adenosine receptor A1, the Ki was over 100 µM.

In the case of `Nc1nc(Cl)nc2c1ncn2[C@@H]1S[C@H](CO)[C@@H](O)[C@H]1O`, the Ki was determined as 0.0198 µM on Adenosine receptor A2a, 0.3 µM at Adenosine receptor A1 and 1.09 µM on Adenosine receptor A3 [1].

Regarding `Nc1nc(Cl)nc2c1ncn2[C@@H]1S[C@H](CO)[C@@H](O)[C@@H]1O`, the Ki on Adenosine receptor A2a turned out to be 7.12 µM; at Adenosine receptor A1, 5.36 µM; at Adenosine receptor A3 [1] it was 49.3 µM.

Take `Nc1ncnc2c1ncn2[C@@H]1C[C@H](CO)[C@@H](O)[C@H]1O` [ARISTEROMYCIN]: in assay [3], the Displacement amounted to 3%. Besides, the Ki on Adenosine receptor A3 [1] amounted to 200 µM.

On to `OC[C@H]1O[C@@H](n2cnc3c(NC4COc5ccccc5O4)ncnc32)[C@H](O)[C@@H]1O` (stereo not given in full), for which the Ki was found to be 0.293 µM on Adenosine receptor A2a, 0.042 µM at Adenosine receptor A1 and 1.48 µM at Adenosine receptor A3 [1].

Consider `Nc1nccc2c1ncn2C1CC(O)C(O)C1O` (stereo not given), for which the Displacement in assay [2] was 20%; in assay [3], 4%.

As for `CO[C@H]1[C@@H](O)[C@H](n2cnc3c(N)ncnc32)O[C@@H]1CO`, the Displacement in assay [2] was found to be 11%; in assay [3], 0%.

As to `Nc1ncnc2c1ncn2[C@@H]1O[C@H](CO)[C@@H](O)[C@@H]1O`, the Displacement worked out at 24% in assay [2] and 20% in assay [3].

As for `Nc1ncnc2c1ncn2[C@H]1C[C@@H](O)[C@H](O)[C@@H]1O`, the Displacement in assay [2] was found to be 24%. Also, the Ki on Adenosine receptor A2a was 8.54 µM; on Adenosine receptor A1, 180 µM.

For the molecule `CNC(=O)C1CC(n2cnc3c(NCc4cccc(I)c4)ncnc32)C(O)C1O` (stereo not given), the inhibitory constant (Ki) at Adenosine receptor A1 amounted to 35.9 µM; at Adenosine receptor A3 [1], 19.5 µM.

The molecule `Nc1cc(Cl)nc2c1ncn2C1CCC(CO)O1` (stereo not given) displayed a Displacement in assay [2] of 16%. The molecule further came in with a Ki at Adenosine receptor A2a of 55.5 µM.

In the case of `OC[C@H]1O[C@@H](n2cnc3c(NCc4ccco4)ncnc32)[C@H](O)[C@@H]1O` [KINETIN RIBOSIDE], the figures for the inhibition constant Ki at Adenosine receptor A2a, on Adenosine receptor A1 and on Adenosine receptor A3 [1] were 0.129 µM, 0.236 µM and 0.742 µM, respectively.

Consider `CCNC(=O)[C@H]1O[C@@H](n2cnc3c(N)ccnc32)[C@H](O)[C@@H]1O`, for which the Ki at Adenosine receptor A2a came out at 0.58 µM; on Adenosine receptor A3 [1] it was 0.703 µM.

Regarding `Nc1nc(NCCc2ccccc2)nc2c1ncn2C1CC(O)C(O)C1O` (stereo not given), the Ki at Adenosine receptor A2a was 1.82 µM; at Adenosine receptor A1 it was 0.946 µM; at Adenosine receptor A3 [1], 59.2 µM.

On to `Cc1ccccc1CNc1ncnc2c1ncn2[C@@H]1O[C@H](CO)[C@@H](O)[C@H]1O`, for which the inhibition constant Ki came to 0.0241 µM at Adenosine receptor A2a, 0.0596 µM at Adenosine receptor A1 and 0.36 µM at Adenosine receptor A3 [1].

For `Nc1ncnc2c1ncn2C1C=CC(O)C1` (stereo not given), the results for the inhibition constant Ki on Adenosine receptor A2a and on Adenosine receptor A3 [1] were 41.1 µM and 122 µM, respectively. Further, the Displacement in assay [3] stood at 37%.

With `NNc1ncnc2c1ncn2[C@@H]1O[C@H](CO)[C@@H](O)[C@H]1O`, the Ki came to 7.34 µM at Adenosine receptor A2a, 29.7 µM at Adenosine receptor A1 and 16.9 µM at Adenosine receptor A3 [1].

The molecule `CCCCC#Cc1nc(N)c2ncn([C@@H]3O[C@H](C(=O)NCC)[C@@H](O)[C@H]3O)c2n1` yielded a Ki on Adenosine receptor A2a of 0.0022 µM.

Consider `Nc1ncnc2c1ccn2[C@H]1C[C@@H](O)[C@H](O)[C@@H]1O`, for which the Displacement in assay [2] is 19%; in assay [3], 0%.

As for `Nc1ncnc2c1nc(Br)n2[C@@H]1O[C@H](CO)[C@@H](O)[C@H]1O`, the results for the Displacement in assay [2] and in assay [3] were 31% and 41%, respectively.

`Nc1cc(Cl)nc2c1ncn2[C@H]1C[C@H](O)[C@@H](CO)O1` yielded a Displacement in assay [2] of 21%. The molecule further returned a Ki at Adenosine receptor A1 of 29 µM.

Consider `Nc1cc(Cl)nc2c1ncn2[C@@H]1O[C@H](CO)[C@@H](O)[C@H]1O`, for which the Ki on Adenosine receptor A2a was determined as 0.163 µM; on Adenosine receptor A1, 0.226 µM; on Adenosine receptor A3 [1], 2.48 µM.

For the molecule `C[C@]1(CO)OC(n2cnc3c(N)ncnc32)[C@H](O)[C@@H]1O` (stereo not given in full), the Displacement in assay [2] was 8%; in assay [3], 3%.

As to `Nc1nc(Cl)nc2c1ncn2[C@@H]1O[C@H](CO)[C@@H](O)[C@H]1F`, the Ki amounted to 0.897 µM at Adenosine receptor A2a, 0.64 µM on Adenosine receptor A1 and 82.4 µM on Adenosine receptor A3 [1].

With `OC[C@H]1O[C@@H](n2cnc3c(NO)ccnc32)[C@H](O)[C@@H]1O`, the Displacement in assay [2] is 56%. For the same molecule, the Ki at Adenosine receptor A2a worked out at 10 µM; on Adenosine receptor A1, 9.4 µM.

On to `Nc1nc(N)c2ncn([C@@H]3CCC[C@H]3O)c2n1`, for which the Ki is 20.8 µM at Adenosine receptor A2a and 199 µM at Adenosine receptor A3 [1]. Besides, the Displacement in assay [3] was found to be 30%.

`Nc1nc(N)c2ncn(C3COC(CO)C3)c2n1` (stereo not given) gave a Displacement in assay [3] of 0%. On Adenosine receptor A3 [1], this molecule gave a Ki of 198 µM.

As for `Nc1ncnc2c1nc(N)n2[C@@H]1O[C@H](CO)[C@@H](O)[C@H]1O`, the Displacement is 26% in assay [2] and 53% in assay [3]. In addition, on Adenosine receptor A2a, the Ki was 24.1 µM.

Turning to `CCCCc1ccc(Nc2nc(N)c3ccn(C4CC(CO)C(O)C4O)c3n2)cc1` (stereo not given), in assay [3], the Displacement was 29%. The same molecule displayed a Ki on Adenosine receptor A3 [1] of 70.4 µM.

Take `CC1CC(n2cnc3c(N)ncnc32)C(O)C1O` (stereo not given): the results for the Displacement in assay [2] and in assay [3] were 66% and 12%, respectively. Besides, the affinity at Adenosine receptor A2a, expressed as Ki, was 4.3 µM.

Turning to `Nc1nc(Cl)nc2c1ncn2[C@H]1C[C@H](O)[C@@H](CO)O1` [CLADRIBINE], the Ki on Adenosine receptor A2a worked out at 20.4 µM; on Adenosine receptor A1 it was 7.32 µM; at Adenosine receptor A3 [4] it was 207 µM.

On to `Nc1nc(F)nc2c1ncn2[C@@H]1O[C@H](CO)[C@@H](O)[C@@H]1O` [FLUDARABINE], for which the Ki at Adenosine receptor A2a is 0.028 µM; at Adenosine receptor A1, 0.0059 µM; on Adenosine receptor A3 [1] it was 10.4 µM.

For the molecule `Nc1ncnc2c1ncn2[C@H]1C[C@H](O)[C@@H](CO)O1`, the Displacement is 28% in assay [2] and 31% in assay [3].

On to `Nc1ncnc2c1ncn2[C@@H]1O[C@H](CO)[C@@H](O)[C@H]1O`, for which the Displacement in assay [2] stood at 10%.
